Assay results published in US11981676B1, “Pyrazolo[4,3-c][2,6]naphthyridines as CK2 inhibitors” (KING FAISAL UNIVERSITY, priority 2024, dated 2024).

Assays:
[1] = test system: H1299 (lung); assay: In vitro cytotoxic activity MTT assay, H1299; format: cell-based; conditions: Homo sapiens, NCI-H1299; H1299 cells, exposed for 96 hours, 50% inhibition of cell proliferation; read-out: Cytotoxicity activity IC50, H1299 (lung)
Method: (§1) Compounds 1-16 were screened for their in vitro cytotoxic activity utilizing a 3-(4,5-dimethyl-thiazol-2-yl)-2,5-diphenyltetrazolium bromide (MTT) assay against selected cancer human cell lines consisting of PC3 (prostate), HCT116 (colon), A375 (melanoma), H1299 (lung), MIAPaCa-2 (pancreas), HL60 (leukemia), MCF7 (breast), MDA-MB-231 (breast) (T. Mosmann, J. Immunol. Meth., 1983, 65, 55-63). The cells were cultured at 37° C. in RMPI1640 medium supplemented with 10% fetal bovine serum, 50 IU/mL penicillin, and 50 μg/mL streptomycin in a 5% CO2 incubator. All cells were sub-cultured 3 times/week by trypsinisation. Viable cells were seeded and allowed to adhere for 12 hours before a test drug was added in 96-well plates at an initial density of 1.0×10^5 cells/mL. Tumor cell lines were separately exposed to various concentrations of the tested compounds followed by incubation at a temperature of 37° C. during 96 hours inside a medium of fresh RMPI 1640. Cells were subsequently incubated at 37° C. using MTT at 0.5 mg/mL during 4 hours. After removal of supernatant, formazan crystals were dissolved in isopropanol and the optical density was measured at 570 nm. CX-4945 was used as a positive control.

[2] = test system: PC3 (prostate); assay: In vitro cytotoxic activity MTT assay, PC3; format: cell-based; conditions: Homo sapiens, PC-3; PC3 cells, exposed for 96 hours, 50% inhibition of cell proliferation; read-out: Cytotoxicity activity IC50, PC3 (prostate)
Method: as §1

[3] = test system: MDA-MB-231 (breast); assay: In vitro cytotoxic activity MTT assay, MDA-MB-231; format: cell-based; conditions: Homo sapiens; MDA-MB-231 cells, exposed for 96 hours, 50% inhibition of cell proliferation; read-out: Cytotoxicity activity IC50, MDA-MB-231 (breast)
Method: as §1

[4] = target: T1, recombinant human CK2 (RRββ-holoenzyme) (Homo sapiens, UniProt P68400); assay: CK2 Kinase Assay (33P-ATP, filter plate); format: biochemical; conditions: recombinant human CK2, final ATP 15 μM, 10 min at 30° C.; read-out: protein kinase CK2 IC50
T1 construct: purchased Millipore
Method: CK2 Kinase Assay was conducted using the protocol as described in Pierre F. et al; J. Med. Chem. 2011, 54, 635-654. The tested compounds in aqueous solution were added at a volume of 10 μL to a reaction mixture comprising 10 μL of assay dilution buffer (ADB; 20 mM MOPS, pH 7.2, 25 mM β-glycerol phosphate, 5 mM EGTA, 1 mM sodium orthovanadate, and 1 mM dithiothreitol), 10 μL of substrate peptide (RRRDDDSDDD, dissolved in ADB at a concentration of 1 mM), 10 μL of recombinant human CK2 (RRββ-holoenzyme, 25 ng dissolved in ADB; Millipore). Reactions were initiated by the addition of 10 μL of ATP solution (90% 75 mMMgCl2, 75 μM ATP (final ATP concentration:15 μM) dissolved in ADB; 10% [γ-33P] ATP (stock 1mCi/100 μL; 3000 Ci/mmol (Perkin-Elmer) and maintained for 10 min at 30° C. The reactions were quenched with 100 μL of 0.75% phosphoric acid and then transferred to and filtered through a phosphor cellulose filter plate (Millipore). After washing each well five times with 0.75% phosphoric acid, the plate was dried under vacuum for 5 min and, following the addition of 15 μL of scintillation fluid to each well, the residual radioactivity was measured using a Wallac […]. The IC50 values were derived from eight concentrations of test inhibitors.

[5] = test system: MCF7 (breast); assay: In vitro cytotoxic activity MTT assay, MCF7; format: cell-based; conditions: Homo sapiens; MCF7 cells, exposed for 96 hours, 50% inhibition of cell proliferation; read-out: Cytotoxicity activity IC50, MCF7 (breast)
Method: as §1

[6] = test system: HCT116 (colon); assay: In vitro cytotoxic activity MTT assay, HCT116; format: cell-based; conditions: Homo sapiens, HCT-116; HCT116 cells, exposed for 96 hours, 50% inhibition of cell proliferation; read-out: Cytotoxicity activity IC50, HCT116 (colon)
Method: as §1

[7] = test system: MIAPaCa-2 (pancreas); assay: In vitro cytotoxic activity MTT assay, MIAPaCa-2; format: cell-based; conditions: Homo sapiens, MIA PaCa-2; MIAPaCa-2 cells, exposed for 96 hours, 50% inhibition of cell proliferation; read-out: Cytotoxicity activity IC50, MIAPaCa-2 (pancreas)
Method: as §1

[8] = test system: HL60 (leukemia); assay: In vitro cytotoxic activity MTT assay, HL60; format: cell-based; conditions: Homo sapiens, HL-60; HL60 cells, exposed for 96 hours, 50% inhibition of cell proliferation; read-out: Cytotoxicity activity IC50, HL60 (leukemia)
Method: as §1

[9] = test system: A375 (melanoma); assay: In vitro cytotoxic activity MTT assay, A375; format: cell-based; conditions: Homo sapiens, A-375; A375 cells, exposed for 96 hours, 50% inhibition of cell proliferation; read-out: Cytotoxicity activity IC50, A375 (melanoma)
Method: as §1

T1 sequence (P68400 whole entry): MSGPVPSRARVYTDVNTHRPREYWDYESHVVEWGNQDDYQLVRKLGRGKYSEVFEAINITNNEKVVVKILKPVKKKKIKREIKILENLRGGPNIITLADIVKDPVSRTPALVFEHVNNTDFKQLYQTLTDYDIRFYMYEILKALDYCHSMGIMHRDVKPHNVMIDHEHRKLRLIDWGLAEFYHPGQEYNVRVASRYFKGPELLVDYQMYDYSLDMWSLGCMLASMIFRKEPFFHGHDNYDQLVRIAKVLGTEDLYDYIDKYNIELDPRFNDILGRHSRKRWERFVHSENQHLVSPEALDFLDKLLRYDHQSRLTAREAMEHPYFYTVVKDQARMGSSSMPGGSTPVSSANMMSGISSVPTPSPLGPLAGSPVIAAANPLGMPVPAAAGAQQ
T1 sequence (P67870 whole entry partner): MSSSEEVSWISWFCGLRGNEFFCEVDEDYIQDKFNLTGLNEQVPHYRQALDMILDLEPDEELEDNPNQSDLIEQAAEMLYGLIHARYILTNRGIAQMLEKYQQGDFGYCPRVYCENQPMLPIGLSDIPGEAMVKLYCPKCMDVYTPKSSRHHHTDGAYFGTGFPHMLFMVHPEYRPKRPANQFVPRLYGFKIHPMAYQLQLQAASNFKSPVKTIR

`O=C(O)c1n[nH]c2c1nc(Nc1cccc(Cl)c1)c1ccncc12` [Compound 1, 5-((3-chlorophenyl)amino)-1H-pyrazolo[4,3-c][2,6]naphthyridine-3-carboxylic acid] gave an IC50 [1] of 2.2 µM, an IC50 [2] of 1.8 µM and an IC50 [3] of 4.1 µM. For the same compound, the IC50 [4] was 0.031 µM, the IC50 [5] was 4.9 µM and the IC50 [6] was 1.9 µM. The IC50 [7] was 0.9 µM, the IC50 [8] was 3 µM and the IC50 [9] was 4.3 µM.
